The record followed here is US8404708B2, “Dual NK1/NK3 receptor antagonists” (Hoffmann-La Roche Inc., priority 2004, dated 2013).

One assay concerns the target human NK1 receptor (Homo sapiens, UniProt P25103). Put plainly: NK1 receptor binding, [3H]substance P displacement, CHO cell membranes.
The target in assay [1] is T1, Recombinant human NK3 (hNK3) receptor (Homo sapiens, UniProt P29371).
T1 construct: expressed in transfected cells
T1 sequence (P29371 1-465): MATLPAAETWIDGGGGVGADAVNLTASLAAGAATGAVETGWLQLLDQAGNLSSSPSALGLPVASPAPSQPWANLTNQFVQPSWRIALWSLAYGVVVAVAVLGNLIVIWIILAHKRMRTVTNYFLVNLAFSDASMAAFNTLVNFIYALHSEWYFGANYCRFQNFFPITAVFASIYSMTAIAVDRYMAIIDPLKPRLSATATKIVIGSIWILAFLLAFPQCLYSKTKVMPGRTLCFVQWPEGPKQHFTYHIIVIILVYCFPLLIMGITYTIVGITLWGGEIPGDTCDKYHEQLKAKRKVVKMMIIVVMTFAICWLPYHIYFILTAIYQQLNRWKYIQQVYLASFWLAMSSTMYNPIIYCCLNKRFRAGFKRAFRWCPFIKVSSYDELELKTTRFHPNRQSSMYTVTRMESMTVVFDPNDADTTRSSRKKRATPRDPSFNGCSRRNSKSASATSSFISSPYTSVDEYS
Put plainly: NK3 receptor binding, [3H]SR142801 displacement, membrane preparations. In a few lines:
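Room-temperature, 90-min filtration binding assay using about 2.5 μg recombinant receptor membranes per well; separation on polyethyleneimine-treated glass-fibre (GF/C) filters and liquid scintillation read-out, with 10 μM SB222200 for nonspecific binding.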

The mark [2] stands for this setting: first value of the cell NK1/NK3, read-out: pKi NK1 (converted).
The mark [3] stands for this setting: second value of the cell NK1/NK3, read-out: pKi NK3 (converted).
Setting [4] is: first value of the cell pKi NK1/NK3, human NK1 receptor, [3H]substance P.
Where [5] appears, read: second value of the cell pKi NK1/NK3, hNK3 receptor, [3H]SR142801.

Where two headings read alike, the source gives them in different places.

Chain of human NK1 receptor (P25103 whole entry): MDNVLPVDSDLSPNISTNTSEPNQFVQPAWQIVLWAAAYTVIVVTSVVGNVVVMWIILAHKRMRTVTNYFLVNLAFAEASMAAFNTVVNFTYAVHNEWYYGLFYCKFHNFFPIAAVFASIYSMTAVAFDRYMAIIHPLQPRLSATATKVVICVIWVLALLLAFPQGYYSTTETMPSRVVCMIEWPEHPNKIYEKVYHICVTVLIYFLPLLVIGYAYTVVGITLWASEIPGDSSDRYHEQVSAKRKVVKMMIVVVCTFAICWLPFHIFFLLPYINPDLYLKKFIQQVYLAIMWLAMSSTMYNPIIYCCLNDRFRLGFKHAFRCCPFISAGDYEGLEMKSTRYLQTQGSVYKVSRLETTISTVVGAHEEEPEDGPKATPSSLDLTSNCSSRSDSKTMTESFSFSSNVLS

Take `CN(C(=O)C(C)(C)c1cc(C(F)(F)F)cc(C(F)(F)F)c1)c1cnc(N2C[C@H](O)C[C@H]2CO)cc1-c1cccnc1Cl` [Example 232, (2S,4R)-2-(3,5-Bis-trifluoromethyl-phenyl)-N-[2-chloro-6′-(4-hydroxy-2-hydroxymethyl-pyrrolidin-1-yl)-[3,4′]bipyridinyl-3′-yl]-N-methyl-isobutyramide]: the Ki at human NK1 receptor (setting [2]) was 0.575 nM; in assay [1] (setting [3]), 1.35 nM.

As to `Cc1ccccc1-c1cc(N2CC(F)(F)C[C@H]2CO)ncc1N(C)C(=O)C(C)(C)c1cc(C(F)(F)F)cc(C(F)(F)F)c1` [Example 299, (S)-2-(3,5-Bis-trifluoromethyl-phenyl)-N-[6-(4,4-difluoro-2-hydroxymethyl-pyrrolidin-1-yl)-4-o-tolyl-pyridin-3-yl]-N-methyl-isobutyramide], the Ki was 2.57 nM at human NK1 receptor (setting [2]) and 1.07 nM in assay [1] (setting [3]).

For `CN(C(=O)C(C)(C)c1cc(C(F)(F)F)cc(C(F)(F)F)c1)c1cnc(N2C[C@H](O)C[C@H]2CO)cc1-c1ccc(Cl)cc1` [Example 203, (2S,4R)-2-(3,5-Bis-trifluoromethyl-phenyl)-N-[4-(4-chloro-phenyl)-6-(4-hydroxy-2-hydroxymethyl-pyrrolidin-1-yl)-pyridin-3-yl]-N-methyl-isobutyramide], the Ki was 2.04 nM at human NK1 receptor (setting [4]) and 10.5 nM in assay [1] (setting [5]).

Take `CN(C(=O)C(C)(C)c1cc(C(F)(F)F)cc(C(F)(F)F)c1)c1cnc(N2CCC[C@H]2CO)cc1-c1ccccc1F` [Example 282, (S)-2-(3,5-Bis-trifluoromethyl-phenyl)-N-[4-(2-fluoro-phenyl)-6-(2-hydroxymethyl-pyrrolidin-1-yl)-pyridin-3-yl]-N-methyl-isobutyramide]: the values for the Ki (at human NK1 receptor (setting [2]); in assay [1] (setting [3])) were 3.09 nM and 2.24 nM, respectively.

For the compound `Cc1cc(F)ccc1-c1cc(N2C[C@H](O)C[C@H]2CO)ncc1N(C)C(=O)C(C)(C)c1cccc(C(F)(F)F)c1` [Example 27, (2S,4R)-N-[4-(4-Fluoro-2-methyl-phenyl)-6-(4-hydroxy-2-hydroxymethyl-pyrrolidin-1-yl)-pyridin-3-yl]-N-methyl-2-(3-trifluoromethyl-phenyl)-isobutyramide], the Ki at human NK1 receptor (setting [4]) was 1.51 nM; in assay [1] (setting [5]), 10.7 nM.

Consider `CN(C(=O)C(C)(C)c1cc(C(F)(F)F)cc(C(F)(F)F)c1)c1cnc(N2C[C@H](O)C[C@H]2CO)cc1-c1ccccc1C(N)=O` [Example 219, (2S,4R)-2-[5-{[2-(3,5-Bis-trifluoromethyl-phenyl)-2-methyl-propionyl]-methyl-amino}-2-(4-hydroxy-2-hydroxymethyl-pyrrolidin-1-yl)-pyridin-4-yl]-benzamide], for which the values for the Ki (on human NK1 receptor (setting [2]); in assay [1] (setting [3])) were 1.45 nM and 20.4 nM, respectively.

With `Cc1ncccc1-c1cc(N2C[C@H](O)C[C@H]2CO)ncc1N(C)C(=O)C(C)(C)c1cc(C(F)(F)F)cc(C(F)(F)F)c1` [Example 233, (2S,4R)-2-(3,5-Bis-trifluoromethyl-phenyl)-N-[6′-(4-hydroxy-2-hydroxymethyl-pyrrolidin-1-yl)-2-methyl-[3,4′]bipyridinyl-3′-yl]-N-methyl-isobutyramide], the Ki is 0.427 nM at human NK1 receptor (setting [2]) and 3.89 nM in assay [1] (setting [3]).

For the compound `CN(C(=O)C(C)(C)c1cc(Cl)cc(Cl)c1)c1cnc(N2C[C@H](O)C[C@H]2CO)cc1-c1ccccc1Cl` [Example 3, (2S,4R)-N-[4-(2-Chloro-phenyl)-6-(4-hydroxy-2-hydroxymethyl-pyrrolidin-1-yl)-pyridin-3-yl]-2-(3,5-dichloro-phenyl)-N-methyl-isobutyramide], the Ki at human NK1 receptor (setting [4]) was 1.41 nM; in assay [1] (setting [5]), 0.871 nM.

Regarding `CN(C(=O)C(C)(C)c1cc(C(F)(F)F)cc(C(F)(F)F)c1)c1cnc(N2CCC(S(C)(=O)=O)C2)cc1-c1ccccc1Cl` (racemic) [Example 66, (RS)-2-(3,5-Bis-trifluoromethyl-phenyl)-N-[4-(2-chloro-phenyl)-6-(3-methanesulfonyl-pyrrolidin-1-yl)-pyridin-3-yl]-N-methyl-isobutyramide], the Ki is 1.48 nM on human NK1 receptor (setting [4]) and 1.29 nM in assay [1] (setting [5]).
